Test results as given in patent publication US11161829B1, “Dihydrofuran chalcone compound and preparation method thereof” (SOUTH CHINA BOTANICAL GARDEN, CHINESE ACADEMY OF SCIENCES, priority 2018, dated 2021).

What was measured:
[1] = DPPH radical scavenging assay; assay type: biochemical; settings: 0.2 mM DPPH in ethanol, 30 minutes in dark at room temperature, absorbance at 517 nm; read-out: IC50 value against DPPH radicals
Method: DPPH is a stable free radical. When a free radical scavenger is present, light absorption of DPPH will be reduced when the single electron is scavenged, which allows to evaluate free radical scavenging ability of the substance and accordingly determine antioxidant ability thereof. The DPPH radical scavenging ability of the dihydrofuran chalcone was measured through the DPPH radical scavenging assay, so as to evaluate the antioxidant ability of the compound. The assay comprised the following steps: 1,1-Diphenyl-2-picrylhydrazyl (DPPH) was dissolved in absolute ethanol to obtain a solution with a concentration of 0.2 mM. The dihydrofuran chalcone was dissolved in absolute ethanol. 80 μL of the ethanol solution of dihydrofuran chalcone and 160 μL of the 0.2 mM DPPH ethanol solution were mixed and the mixture was placed in dark at room temperature for 30 minutes. Then, light absorbance at 517 nm was measured using a microplate reader (SpectraMax 190, Molecular Devices, USA), and Vc was employed as a positive control.

[2] = Solubility in methanol (structure identification); assay type: physicochemical

Structure (SMILES)	IC50 [1] [µM]	solubility in methanol [2]
O=C1O[C@H]([C@@H](O)CO)C(O)=C1O [Vc, vitamin C]	100	–
CC(C)(O)C1Cc2c(O)ccc(C(=O)/C=C/c3ccc(O)cc3O)c2O1 (centres unmarked) [compound 1, dihydrofuran chalcone]	–	easily soluble
